Source: ChEMBL document CHEMBL3875147 (Eur J Med Chem, 2016)
Converted amounts (≈) assume the structure as drawn.

Experiments:
[1] = tested on: Staphylococcus aureus; experiment: Antibacterial activity against Staphylococcus aureus ATCC 25923 incubated for 18 to 24 hrs by micro-dilution method; assay type: functional
[2] = tested on: Staphylococcus epidermidis; experiment: Antibacterial activity against Staphylococcus epidermidis ATCC 35984 incubated for 18 to 24 hrs by micro-dilution method; assay type: functional; settings: RP62A
[3] = tested on: Enterococcus faecalis; experiment: Antibacterial activity against clinical isolate of Enterococcus faecalis incubated for 18 to 24 hrs by micro-dilution method; assay type: functional
[4] = tested on: Escherichia coli; experiment: Antibacterial activity against Escherichia coli ATCC 25922 incubated for 18 to 24 hrs by micro-dilution method; assay type: functional
[5] = tested on: Pseudomonas aeruginosa; experiment: Antibacterial activity against Pseudomonas aeruginosa ATCC 27853 incubated for 18 to 24 hrs by micro-dilution method; assay type: functional
[6] = tested on: Pseudomonas aeruginosa; experiment: Antibacterial activity against clinical isolate of Pseudomonas aeruginosa incubated for 18 to 24 hrs by micro-dilution method; assay type: functional
[7] = Antibacterial activity against Aeromonas hydrophila ATCC 7966 incubated for 18 to 24 hrs by micro-dilution method; assay type: functional, Aeromonas hydrophila subsp. hydrophila ATCC 7966
[8] = tested on: Salmonella typhi; experiment: Antibacterial activity against clinical isolate of Salmonella typhi incubated for 18 to 24 hrs by micro-dilution method; assay type: functional, Salmonella enterica subsp. enterica serovar Typhi; settings: Salmonella enterica
[9] = tested on: Salmonella typhimurium; experiment: Antibacterial activity against clinical isolate of Salmonella typhimurium incubated for 18 to 24 hrs by micro-dilution method; assay type: functional, Salmonella enterica subsp. enterica serovar Typhimurium; settings: Salmonella enterica
[10] = tested on: Sphingomonas paucimobilis; experiment: Antibacterial activity against Sphingomonas paucimobilis MTCC 6362 incubated for 18 to 24 hrs by micro-dilution method; assay type: functional
[11] = tested on: Plesiomonas shigelloides; experiment: Antibacterial activity against Plesiomonas shigelloides ATCC 14029 incubated for 18 to 24 hrs by micro-dilution method; assay type: functional
[12] = Hemolytic activity in human RBC at 100 uM measured after 1 hr by UV-vis absorbance method relative to control; assay type: ADME, cell-based, Erythrocyte; settings: red blood cells (RBC), read-out: Activity
[13] = tested on: Enterococcus faecalis; experiment: Potency index, ratio of MIC for ciprofloxacin to MIC for test compound for antibacterial activity against clinical isolate of Enterococcus faecalis; assay type: functional
[14] = tested on: Staphylococcus aureus; experiment: Potency index, ratio of MIC for ciprofloxacin to MIC for test compound for antibacterial activity against Staphylococcus aureus ATCC 25923; assay type: functional
[15] = tested on: Staphylococcus epidermidis; experiment: Potency index, ratio of MIC for ciprofloxacin to MIC for test compound for antibacterial activity against Staphylococcus epidermidis ATCC 35984; assay type: functional, RP62A
[16] = tested on: Escherichia coli; experiment: Potency index, ratio of MIC for ciprofloxacin to MIC for test compound for antibacterial activity against Escherichia coli ATCC 25922; assay type: functional
[17] = tested on: Plesiomonas shigelloides; experiment: Potency index, ratio of MIC for ciprofloxacin to MIC for test compound for antibacterial activity against Plesiomonas shigelloides ATCC 14029; assay type: functional

SMILES	MIC [1] [µM]	MIC [2] [µM]	MIC [3] [µM]	MIC [4] [µM]	MIC [5] [µM]	MIC [6] [µM]	MIC [7] [µM]	MIC [8] [µM]	MIC [9] [µM]	MIC [10] [µM]	MIC [11] [µM]	hemolysis at 1 h, 100 µM [12] [%]	Ratio [13]	Ratio [14]	Ratio [15]	Ratio [16]	Ratio [17]
O=C(OCc1cn(-c2ccc(F)cc2F)nn1)c1cn(C2CC2)c2cc(N3CCN(Cc4cn(-c5ccc(F)cc5F)nn4)CC3)c(F)cc2c1=O	4.35 (≈ 3.12 µg/mL)	8.71 (≈ 6.25 µg/mL)	17.4 (≈ 12.5 µg/mL)	8.71 (≈ 6.25 µg/mL)	8.71 (≈ 6.25 µg/mL)	17.4 (≈ 12.5 µg/mL)	69.7 (≈ 50 µg/mL)	4.35 (≈ 3.12 µg/mL)	34.8 (≈ 25 µg/mL)	34.8 (≈ 25 µg/mL)	69.7 (≈ 50 µg/mL)	9.5					
Cc1ccc(-n2cc(COC(=O)c3cn(C4CC4)c4cc(N5CCN(Cc6cn(-c7ccc(C)cc7Cl)nn6)CC5)c(F)cc4c3=O)nn2)c(Cl)c1	4.21 (≈ 3.13 µg/mL)	8.42 (≈ 6.25 µg/mL)	33.7 (≈ 25 µg/mL)	67.3 (≈ 50 µg/mL)	16.8 (≈ 12.5 µg/mL)	16.8 (≈ 12.5 µg/mL)	67.3 (≈ 50 µg/mL)	> 135	67.3 (≈ 50 µg/mL)	67.3 (≈ 50 µg/mL)	33.7 (≈ 25 µg/mL)	5.85					
O=C(OCc1cn(-c2ccc(OC(F)(F)F)cc2)nn1)c1cn(C2CC2)c2cc(N3CCN(Cc4cn(-c5ccc(OC(F)(F)F)cc5)nn4)CC3)c(F)cc2c1=O	3.84 (≈ 3.12 µg/mL)	1.92 (≈ 1.56 µg/mL)	0.96 (≈ 0.781 µg/mL)	3.84 (≈ 3.12 µg/mL)	3.84 (≈ 3.12 µg/mL)	15.4 (≈ 12.5 µg/mL)	3.84 (≈ 3.12 µg/mL)	30.7 (≈ 25 µg/mL)	3.84 (≈ 3.12 µg/mL)	15.4 (≈ 12.5 µg/mL)	15.4 (≈ 12.5 µg/mL)	9.75	19				
CCc1ccc(-n2cc(COC(=O)c3cn(C4CC4)c4cc(N5CCN(Cc6cn(-c7ccc(CC)cc7)nn6)CC5)c(F)cc4c3=O)nn2)cc1	142 (≈ 100 µg/mL)	71.2 (≈ 50 µg/mL)	142 (≈ 100 µg/mL)	> 142	> 142	> 142	> 142	142 (≈ 100 µg/mL)	8.91 (≈ 6.25 µg/mL)	> 142	4.45 (≈ 3.12 µg/mL)	6.81					
O=C(OCc1cn(-c2cccc(Cl)c2Cl)nn1)c1cn(C2CC2)c2cc(N3CCN(Cc4cn(-c5cccc(Cl)c5Cl)nn4)CC3)c(F)cc2c1=O	3.99 (≈ 3.13 µg/mL)	3.99 (≈ 3.13 µg/mL)	15.9 (≈ 12.5 µg/mL)	7.98 (≈ 6.25 µg/mL)	7.98 (≈ 6.25 µg/mL)	15.9 (≈ 12.5 µg/mL)	31.9 (≈ 25 µg/mL)	31.9 (≈ 25 µg/mL)	15.9 (≈ 12.5 µg/mL)	15.9 (≈ 12.5 µg/mL)	7.98 (≈ 6.25 µg/mL)	6.58					
O=C(OCc1cn(-c2ccc(Br)cc2)nn1)c1cn(C2CC2)c2cc(N3CCN(Cc4cn(-c5ccc(Br)cc5)nn4)CC3)c(F)cc2c1=O	1.94 (≈ 1.56 µg/mL)	3.89 (≈ 3.13 µg/mL)	15.6 (≈ 12.5 µg/mL)	7.78 (≈ 6.25 µg/mL)	15.6 (≈ 12.5 µg/mL)	15.6 (≈ 12.5 µg/mL)	31.1 (≈ 25 µg/mL)	7.78 (≈ 6.25 µg/mL)	15.6 (≈ 12.5 µg/mL)	15.6 (≈ 12.5 µg/mL)	3.89 (≈ 3.13 µg/mL)	1.46					
C#CCOC(=O)c1cn(C2CC2)c2cc(N3CCN(CC#C)CC3)c(F)cc2c1=O	1.92 (≈ 0.782 µg/mL)	1.92 (≈ 0.782 µg/mL)	30.7 (≈ 12.5 µg/mL)	1.92 (≈ 0.782 µg/mL)	7.67 (≈ 3.13 µg/mL)	15.3 (≈ 6.25 µg/mL)	61.4 (≈ 25 µg/mL)	30.7 (≈ 12.5 µg/mL)	7.67 (≈ 3.13 µg/mL)	30.7 (≈ 12.5 µg/mL)	1.92 (≈ 0.782 µg/mL)	4.57		5 - 10	5 - 10	5 - 10	5 - 10
O=C(OCc1cn(-c2ccc(Cl)cc2)nn1)c1cn(C2CC2)c2cc(N3CCN(Cc4cn(-c5ccc(Cl)cc5)nn4)CC3)c(F)cc2c1=O	2.19 (≈ 1.56 µg/mL)	35 (≈ 25 µg/mL)	2.19 (≈ 1.56 µg/mL)	4.37 (≈ 3.12 µg/mL)	4.37 (≈ 3.12 µg/mL)	8.75 (≈ 6.25 µg/mL)	35 (≈ 25 µg/mL)		4.37 (≈ 3.12 µg/mL)	35 (≈ 25 µg/mL)	8.75 (≈ 6.25 µg/mL)	4.73					
O=C(OCc1cn(-c2ccc(Cl)cc2Cl)nn1)c1cn(C2CC2)c2cc(N3CCN(Cc4cn(-c5ccc(Cl)cc5Cl)nn4)CC3)c(F)cc2c1=O	3.99 (≈ 3.13 µg/mL)	3.99 (≈ 3.13 µg/mL)	15.9 (≈ 12.5 µg/mL)	> 128	15.9 (≈ 12.5 µg/mL)	7.98 (≈ 6.25 µg/mL)	7.98 (≈ 6.25 µg/mL)	7.98 (≈ 6.25 µg/mL)	15.9 (≈ 12.5 µg/mL)	15.9 (≈ 12.5 µg/mL)	7.98 (≈ 6.25 µg/mL)	18.2					
Cc1cc(C)cc(-n2cc(COC(=O)c3cn(C4CC4)c4cc(N5CCN(Cc6cn(-c7cc(C)cc(C)c7)nn6)CC5)c(F)cc4c3=O)nn2)c1	71.2 (≈ 50 µg/mL)	142 (≈ 100 µg/mL)	> 142	142 (≈ 100 µg/mL)	> 142	> 142	> 142	> 142	> 142	> 142	8.91 (≈ 6.25 µg/mL)	8.79					
